Source: publication PMC8962522, “Direct interaction of TrkA/CD44v3 is essential for NGF-promoted aggressiveness of breast cancer cells” (Journal of Experimental & Clinical Cancer Research : CR, 2022)

Experiments:
Assay type in all cases: cell-based
[1] = test system: TrkA/CD44v3 complex in MDA-MB-231 cells; experiment: PLA TrkA/CD44v3 complex formation in MDA-MB-231 cells; conditions: NGF 100 ng/ml; 30 fields per condition, three experiments
Protocol: Cells (10,000 cells per well) were grown on acid-washed eight-well glass slides (Thermo Scientific) in the appropriate medium supplemented with 10% FBS for 24 h. After NGF treatment, paraformaldehyde (PAF)-fixed cells were incubated with 4% bovine serum albumin (BSA) or 5% FBS (for 1 h at 20 °C), followed by overnight incubation with primary antibodies (rabbit anti-TrkA or rabbit anti-IgG + mouse anti-pan-CD44; mouse anti-CD44v3; mouse anti-CD44v6; mouse anti-IgG2a; mouse anti-IgG2b; or mouse anti-IgG1). PLA was performed following the manufacturer’s instructions in the assay kit (Duolink PLA; Sigma–Aldrich). To obtain the correct representation of the PLA signal for each condition, 30 fields per condition were observed using a fluorescence microscope (Eclipse TiU; Nikon, Japan). The PLA signals (red dots) were automatically quantified using ImageJ software (with an in-house-developed plug-in). After PLA, statistical analyses were performed using GraphPad Prism software to determine the mean dot intensity in the cells.
Fig. 3 CD44v3 mimetic peptide 4 blocks the TrkA-CD44 association in MDA-MB-231 breast cancer cells. TrkA/CD44v3 (A) and TrkA/CD44v6 (B) complex associations were detected by the proximity ligation assay (PLA) in MDA-MB-231 breast cancer cells. Effects of a scramble peptide (SP) (C), CD44v3 mimetic peptide 3 (P3) and 4 (P4) (D) on TrkA/CD44v3 complex formation induced by NGF. Quantification of the PLA results was performed by ImageJ software (30 randomly chosen fields per condition of three different experiments). Statistical analyses were performed using one-way ANOVA followed by Bonferroni’s posttest. The error bars represent the standard error of the mean (S.E.M.); * p < 0.05, ** p < 0.01, *** p < 0.001; ns, not significant

MDA-MB-231 cells [2] = experiment: Elongation factor (length-to-width ratio), MDA-MB-231; conditions: MDA-MB-231, with NGF
Protocol: Therefore, in this study, we assessed TrkA binding to CD44v3 in MDA-MB-231 cells, which were used as TNBC model cells. First, PLA was performed using anti-CD44 variant 3- (Fig. 3A and Supplementary Fig. 7) or anti-CD44 variant 6-specific antibodies (Fig. 3B). […] Next, we tested the ability of CD44v3 mimetic peptides to block TrkA/CD44v3 complex formation in MDA-MB-231 cells (Fig. 3C-E). […] Therefore, we evaluated the physiological consequences of TrkA/CD44v3 complex dissociation induced by CD44v3 mimetic peptide 4 on MDA-MB-231 cell phenotypes (Fig. 4). We first examined the effect of mimetic peptide 4 on clonogenic cell growth. For this experiment, MDA-MB-231 cells were grown in the presence of 2% FBS for […] in the presence or absence of CD44v3 mimetic peptide 4 (Fig. 4A and B). […] We first determined the effect of CD44v3 on the length-to-width (l/w) ratio of the cells (elongation factor) (Fig. 4C-E). […]
Fig. 4 CD44v3 mimetic peptide 4 inhibits MDA-MB-231 breast cancer cell growth and migration/invasion. Clonogenic MDA-MB-231 cell growth was measured after 10 days in the presence of a scramble peptide (SP) or CD44v3 mimetic peptide (P4) (A, B). The elongation factor (length-to-width ratio) was assessed after 10 days in the presence or absence of NGF (C, D, E). […] Invasion through collagen 1 was measured by the Transwell assay 16 h after treatment (J, K). […]

MDA-MB-231 cells [3] = experiment: Transwell invasion assay through collagen I, MDA-MB-231; conditions: peptide 50 ng/mL for 30 min, NGF in lower chamber, 24 h (legend: 16 h)
Protocol: Transwell invasion assays were performed to assess cancer cell invasion in a Transwell chamber containing a collagen I-coated membrane (12-wells with inserts and […] pore size membranes; Corning, Life Sciences). A total of 1 × 10^6 starved cells (0.1% in SVF medium) were plated in the top chamber and incubated for 10 min before treatment with a peptide (50 ng/mL for 30 min); NGF was added to the lower chamber. After 24 h, the cells were fixed with methanol for 10 min and stained with Hoechst 33258 (1 mg/mL) for 30 min, and the cells that invaded the lower surface through the pores of the inserts were automatically counted under an inverted microscope with ImageJ software (with an in-house-developed plug-in).
Fig. 4 CD44v3 mimetic peptide 4 inhibits MDA-MB-231 breast cancer cell growth and migration/invasion. Clonogenic MDA-MB-231 cell growth was measured after 10 days in the presence of a scramble peptide (SP) or CD44v3 mimetic peptide (P4) (A, B). The elongation factor (length-to-width ratio) was assessed after 10 days in the presence or absence of NGF (C, D, E). Migration assays were performed using Ibidi devices 24 h after treatment (H, I). Invasion through collagen 1 was measured by the Transwell assay 16 h after treatment (J, K). Statistical analyses were performed using one-way ANOVA followed by Bonferroni’s posttest. […]

Row | Substance | effect on TrkA/CD44v3 complex formation (PLA) in MDA-MB-231 cells [1] | effect on length-to-width (l/w) ratio (elongation factor) (MDA-MB-231 cells [2]) | effect on invasion of MDA-MB-231 cells (MDA-MB-231 cells [3])
1 | NGF: recombinant human β-NGF (Alomone Labs, Israel) | induced TrkA/CD44v3 complex formation in MDA-MB-231 cells at the plasma membrane within 5 min to 30 min of administration | significant increase in the l/w ratio | more NGF-treated cells than untreated cells invaded the collagen substrate
2 | IDDDEDFISST [Peptide 4, mimetic peptide 4 (…) corresponding to the C-terminal region of CD44v3] | could disrupt TrkA/CD44v3 complex formation in MDA-MB-231 cells | This effect of NGF was inhibited | a decrease in both basal levels and NGF-induced invasion was observed
